Results taken from the supplement of paper PMC10307832.

The cell lines below were run with CN1CCN(CC1)C2=CC(=C(C=C2)NC3=NC=C4C(=N3)N(C5=CC=CC=C5C(=O)N4C)C)OC [XMD8-85] + C[C@@H](Oc1cc(-c2cnn(C3CCNCC3)c2)cnc1N)c1c(Cl)ccc(F)c1Cl [Crizotinib] (partner 1 µM) (assay: relative viability (nuclei count vs DMSO), 5 days (fraction); higher = more cells survive). Conditions: first compound 0.8 µM.
In short: (§1)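 Nuclei were stained with Hoechst during a one-step fixation (final 0.05% Triton X-100, 1% formaldehyde, 1 ug/ml Hoechst) carried out 5 days after dosing, then counted on 4× images. The cells, lung cancer lines in 1536-well plates, had been dosed by pin tool the day after seeding with one drug alone or a fixed anchor-drug dose plus five library-drug doses (not always all listed) in √10 steps. Relative viability is the nuclei count in treated wells divided by that in vehicle wells, and each value is the median of duplicate plates.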

| Cell Line | relative viability |
| --- | --- |
| HCC-366 | 0.586 |
| HCC-827 | 0.942 |
| HOP-62 | 0.951 |
| IA-LM | 0.91 |
| LC-2-ad | 0.462 |
| LCLC-97TM1 | 0.558 |
| LCLC-103H | 1.14 |
| LK-2 | 0.201 |
| LOU-NH91 | 0.728 |
| NCI-H441 | 0.89 |
| NCI-H1299 | 1.03 |
| NCI-H1650 | 1.12 |
| NCI-H1703 | 0.649 |
| NCI-H2170 | 1.27 |

Same assay, conditions: first compound 2.53 µM

| Cell Line | relative viability |
| --- | --- |
| 201T | 1.03 |
| A549 | 0.855 |
| A-427 | 1.05 |
| ABC-1 | 0.994 |
| BEN | 0.608 |
| CAL-12T | 0.474 |
| COR-L23 | 0.631 |
| COR-L 105 | 0.455 |
| ChaGo-K-1 | 0.887 |
| EBC-1 | 0.186 |
| EKVX | 1 |
| EMC-BAC-2 | 0.662 |
| EPLC-272H | 0.947 |
| H3255 | 0.902 |
| HARA | 0.94 |
| HCC-15 | 0.806 |

| Cell Line | relative viability |
| --- | --- |
| HCC-44 | 0.802 |
| HCC-78 | 0.37 |
| HCC-366 | 0.481 |
| HCC-827 | 0.944 |
| HOP-62 | 0.835 |
| LC-2-ad | 0.444 |
| LCLC-97TM1 | 0.456 |
| LCLC-103H | 1.07 |
| LK-2 | 0.226 |
| LOU-NH91 | 0.725 |
| NCI-H441 | 0.931 |
| NCI-H1299 | 0.928 |
| NCI-H1650 | 0.715 |
| NCI-H1703 | 0.47 |
| NCI-H2170 | 1.28 |

Same assay, conditions: first compound 8 µM

| Cell Line | relative viability |
| --- | --- |
| 201T | 0.949 |
| A549 | 0.426 |
| A-427 | 0.56 |
| ABC-1 | 0.49 |
| BEN | 0.447 |
| CAL-12T | 0.15 |
| COR-L23 | 0.299 |
| COR-L 105 | 0.255 |
| Calu-6 | 0.396 |
| EBC-1 | 0.114 |
| EKVX | 0.886 |
| EMC-BAC-2 | 0.72 |
| EPLC-272H | 0.691 |
| H3255 | 0.52 |
| HARA | 0.417 |
| HCC-15 | 0.592 |

| Cell Line | relative viability |
| --- | --- |
| HCC-44 | 0.301 |
| HCC-78 | 0.295 |
| HCC-366 | 0.136 |
| HCC-827 | 0.856 |
| HOP-62 | 0.724 |
| IA-LM | 0.127 |
| LC-2-ad | 0.303 |
| LCLC-97TM1 | 0.333 |
| LCLC-103H | 0.761 |
| LK-2 | 0.262 |
| LOU-NH91 | 0.67 |
| NCI-H441 | 0.485 |
| NCI-H1299 | 0.601 |
| NCI-H1650 | 0.256 |
| NCI-H1703 | 0.315 |
| NCI-H2170 | 0.966 |

The cell lines below were run with CN1CCN(CC1)C2=CC(=C(C=C2)NC3=NC=C4C(=N3)N(C5=CC=CC=C5C(=O)N4C)C)OC [XMD8-85] + CS(=O)(=O)CCNCc1ccc(-c2ccc3ncnc(Nc4ccc(OCc5cccc(F)c5)c(Cl)c4)c3c2)o1 [Lapatinib] (partner 2 µM) in the same assay as above. Conditions: first compound 0.08 µM.
In short: as §1

| Cell Line | relative viability |
| --- | --- |
| 201T | 1.07 |
